This assay concerns the target T1, rat SCD (Rattus norvegicus, UniProt P07308).
T1 construct: rat liver microsomes (RLMs) isolated from rats fed a […] to induce SCD expression; from tissue; host or cells: rat liver microsomes (SCD-induced by diet); assay run at PureHoney Technologies
T1 sequence (P07308 1-358): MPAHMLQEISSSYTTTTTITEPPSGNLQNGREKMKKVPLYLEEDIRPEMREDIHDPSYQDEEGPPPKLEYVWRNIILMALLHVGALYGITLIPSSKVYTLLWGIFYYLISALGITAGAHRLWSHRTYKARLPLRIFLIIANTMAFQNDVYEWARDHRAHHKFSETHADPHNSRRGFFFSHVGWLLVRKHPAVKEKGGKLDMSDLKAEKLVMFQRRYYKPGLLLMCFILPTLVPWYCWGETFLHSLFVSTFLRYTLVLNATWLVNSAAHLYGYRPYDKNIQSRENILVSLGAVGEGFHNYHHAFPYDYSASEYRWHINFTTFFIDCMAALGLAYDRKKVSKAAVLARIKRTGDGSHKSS
Description: SCD enzyme assay in SCD-induced rat liver microsomes (RLM). The assay is classed as biochemical. The note with it: C17:0-CoA substrate, Rapid-Fire mass spectrometry. As for the experimental part: The SCD biochemical assay has been described previously (Vincent et al., 2018). In brief, SCD-induced rat liver microsomes (RLM) were isolated from […] fed a high-carbohydrate, low-fat diet for 5 days. RLM were then used in an optimized biochemical assay using C17:0-CoA as a substrate (Avanti Lipids, #870,717) and Rapid-Fire mass spectrometry to quantify conversion to C17:1-CoA. The RLM assay was performed at PureHoney Technologies (Billerica, MA).
An iterative medicinal chemistry campaign identified YTX-7739 as a SCD inhibitor that reduced conversion of saturated to unsaturated fatty acids (Fig. 1A). The potency of YTX-7739 in inhibiting SCD activity was initially assessed in rat liver microsomes (RLMs) isolated from rats fed a […] to induce SCD expression. RLMs were then used in conjunction with a synthetic C17:0-CoA SCD substrate and rapid-fire mass spectrometry to assess enzyme activity.
Fig. 1 Characterization of in vitro properties of YTX-7739. A SCD reaction converting CoA-linked saturated to monounsaturated fatty acids of 16 (palmitoleic acid) or 18 (oleic acid) carbons in length. […] B YTX-7739 and a reference SCD inhibitor (CAY10566) was tested in a biochemical assay using SCD-induced RLM and C17:0-CoA with Rapid-Fire mass spectrometry as an analytical readout. […] The calculated IC50 values are inset. […]
In general terms: Liver microsomes are vesicles of endoplasmic reticulum, rich in cytochrome P450 enzymes.

The IC50 is the concentration that inhibits the measured activity by half. High values mean a need for much substance, low ones inhibition by little substance. `Cc1nnc(-c2ccc(N3CCC(Oc4cc(F)ccc4Cl)CC3)nn2)o1` [CAY10566] came in with a half-inhibitory concentration (IC50) of 1.1 nM.

Source of the values: PMC9015998, “Non-clinical Pharmacology of YTX-7739: a Clinical Stage Stearoyl-CoA Desaturase Inhibitor Being Developed for Parkinson’s Disease” (Molecular Neurobiology, 2022).
